Results taken from publication PMC8831520, “Small molecule SWELL1 complex induction improves glycemic control and nonalcoholic fatty liver disease in murine Type 2 diabetes” (Nature Communications, 2022).

Test system: T1, SWELL1 protein in 3T3-F442A adipocytes
T1 construct: host or cells: 3T3-F442A preadipocytes and differentiated adipocytes (wild type)
Assay: SWELL1 protein western blot in adipocytes
Assay type: cell-based, murine
Settings: for SWELL1 protein level relative to vehicle-treated controls: 10 and 1 μM, 4 days, then 6 h serum starving
Experimental: In the case of 3T3-F442A adipocytes, the WT and KO cells were treated with either vehicle (DMSO), 1 or 10 µM SN-40X (after 7–11 days of differentiation) for 96 h and then stimulated with 0 and 10 nM insulin/serum-containing media with vehicle (DMSO) or SN-40X for 15 min for SWELL1 detection. […] To simulate glucolipotoxicity, 8 mM sodium palmitate was dissolved in 18.4% fatty-acid free BSA at 37 °C in DMEM medium with 25 mM glucose to obtain a conjugation ratio of 1:3 palmitate:BSA[80].
Adipocytes were washed twice in ice-cold phosphate buffer saline and lysed in RIPA buffer (150 mM NaCl, 20 mM HEPES, 1% NP-40, 5 mM EDTA, pH 7.4) with proteinase/phosphatase inhibitors (Roche). The cell lysate was further sonicated in 10 s cycle intervals 2–3 times and centrifuged at 18,407×g for 30 min at 4 °C and repeated one more time to remove the excess fat. The supernatant was collected and further estimated for protein concentration using a DC protein assay kit (Bio-Rad). Fat and liver tissues were homogenized and suspended in RIPA buffer with inhibitors and further processed in a similar fashion as described above. HUVECs were also prepared in a similar fashion except the lysates were spun only once to remove the cells debris to obtain the clear supernatant. For islets, either human or mouse islets were washed twice with phosphate buffer saline (PBS) and lysed using RIPA buffer containing protease and phosphatase inhibitors. The lysate was further clarified by freezing in liquid nitrogen for about 10 s for three cycles. The supernatant was collected from the whole lysate centrifuged at 16,260×g for 20 min at 4 °C. […] For soleus muscle, the tissue was homogenized in a Bullet Blender homogenizer (Speed-9, Time-3 mins) in 8 volumes of ice-cold muscle homogenization buffer (50 mM Tris, 25 mM NaCl, 0.2% Nonidet P-40, 5 mM EGTA, 2.5 mM EDTA, 20 mM NaF, 20 mM Na4P2O7·10H2O, 2 mM Na3VO4, pH 7.4) supplemented with protease/phosphatase inhibitor (Roche). The homogenized lysate was centrifuged two times at 18,500×g for 20 min at 4 °C and supernatant was collected for protein estimation. Protein samples were further prepared by boiling in 2X or 4X Laemmli buffer. Approximately 10–60 µg of total protein was loaded in 4–15% gradient gel (Bio-Rad) for separation and protein transfer was carried out onto the PVDF membranes (Bio-Rad). Membranes were blocked in 5% BSA (or 5% milk for SWELL1) in TBST buffer (0.2 M Tris, 1.37 M NaCl, 0.2% Tween-20, pH 7.4) for 1 h and incubated with appropriate primary antibodies (5% BSA or milk) overnight at 4 °C. […] The images were further analyzed for band intensities using ImageJ software. […]

Compound	SWELL1 protein level relative to vehicle-treated controls	SWELL1 protein expression (3T3-F442A adipocytes, 10 µM, 96 h) [fold control expression]
CCCCC1(C2CCCC2)Cc2cc(OCC(=O)O)c(Cl)c(Cl)c2C1=O (stereo not drawn) [Inactive 1, 2-((2-butyl-6,7-dichloro-2-cyclopentyl-1-oxo-2,3-dihydro-1H-inden-5-yl)oxy)acetic acid]	did not significantly increase	–
CCCCC1(C2CCCC2)Cc2cc(OCCCC(=O)O)c(Cl)c(Cl)c2C1=O (stereo not drawn) [SN-401, 4-((2-butyl-6,7-dichloro-2-cyclopentyl-1-oxo-2,3-dihydro-1H-inden-5-yl)oxy)butanoic acid]	–	1.5
CCCCC1(C2CCCC2)Cc2cc(OCCCCCC(=O)O)c(Cl)c(Cl)c2C1=O (stereo not drawn) [SN-406, 6-((2-butyl-6,7-dichloro-2-cyclopentyl-1-oxo-2,3-dihydro-1H-inden-5-yl)oxy)hexanoic acid]	1.5–2.1 fold	–
